This is an account of results in patent publication US7045536B2, “Compound having anti-viral activity” (Industrial Technology Research Institute, priority 2003, dated 2006).

Data set [1] deals with RD cells. The data set is described as follows: Toxicity test. It counts as cell-based. The following applies: 3-4 days, crystal violet OD570nm. As to the method: In this embodiment, rhabdomyosarcoma (RD) cells obtained from the Virology Lab of Chang Gung Memorial Hospital are cultured in DMEM (Gibco) containing 10% fetal bovine serum and placed in 5% CO2, 37° C. incubator. In successive culture, the cells are rinsed twice with 1× PBS and then added with proper amount of 0.25% trypsin-EDTA (Gibco) for cell treatment. After the cells drop off from the surface of culture dish, add DMBM medium containing 10% fetal bovine serum to disperse the cells evenly in the culture dishes. Place the dishes into 5% CO2, 37° C. incubator to continue the culturing.
In this embodiment, cultured cells from Embodiment 3 are cultured in 96-well plate. After the cells are mixed with the tested compound for one hour, add DMEM containing 2% fetal bovine serum, and place the medium in 5% CO2, 35° C. incubator for 3–4 days. To read the test result, add 5% formalin to fixate for 1–2 hours and dye with 0.1% crystal violet (J. T. Baker) for 2–3 minutes. Rinse with water and measure OD570nm values.

For data set [2], the system named is enterovirus type 71. Kind of data set: Neutralization test. It counts as cell-based, enterovirus 71/Tw/2231/98. To be noted: concentration of 10 mg/ml; RD cells, crystal violet OD570nm. As to the method:
In this embodiment, enterovirus 71/Tw/2231/98 obtained from Virology Lab of Chang Gung Memorial Hospital is diluted with fetal bovine serum free culture medium. Culture the RD cells in DMEM containing 10% fetal bovine serum. When the cells are 90% cultured, wash with 1×PBC once and add the aforesaid diluted virus fluid into the culture medium. Place the medium in the 5% CO2, 35° C. incubator for inoculation for one hour and then add DMEM containing 2% fetal bovine serum. Place the medium in 5% CO2, 35° C. incubator. When over 95% of the cells become round and drop off, collect the supernatant. After centrifuge, freezing and thawing, refrigerate the virus supernatant under −80° C.
In this embodiment, cultured cells from Embodiment 3 are cultured in 96-well plate. After mixing fixed-quantity of virus fluid with the tested compound, add in culture medium for inoculation for one hour, and then add in DMEM containing 2% fetal bovine serum. Place the medium in 5% CO2, 35° C. incubator for 3–4 days. To read the test result, add 5% formalin to fixate for 1–2 hours and dye with 0.1% crystal violet for 2–3 minutes. Rinse with water and measure OD570nm values.

Regarding `C[n+]1ccn(CC(O)Cn2cc[n+](C)c2)c1.[Br-].[Br-]` [dibromo 1,1′-glyceryl-bis (3-methyl-1H-imidazole)], the LC50 (as a rule, the concentration that kills 50% of the test population) in data set [1] was determined as 8400 µg/mL. In addition, in data set [2], the “inhibitory effect on enterovirus type 71” value is 32%.
Compound `OC(C[n+]1ccccc1)C[n+]1ccccc1.[Br-].[Br-]` [dibromo 1,1′-glyceryl-bispyridine] registered an LC50 in data set [1] of 9200 µg/mL. Further, in data set [2], the “inhibitory effect on enterovirus type 71” value turned out to be 30%.
